This experiment concerns walnut (Juglans regia cv. Serr). As to the kind of experiment: Control of PFA (pistillate flower abortion) field trial in a walnut orchard, Graneros, Chile (2008/2009). The experiment is classed as in vivo. The conditions noted are these: water 1500 l/ha. The text has this:
In the terms of the present invention, “reducing pistillate flower abortion in plants” refers to a reduction in the level of PFA. This reduction can be measured by determining a) the fruit set (%), b) the number of growing fruits (%) and/or c) the remaining fruits at harvest (%) (fruit yield). The higher the percentage of fruit set, growing fruits and/or remaining fruits at harvest, the lower the respective pistillate flower abortion. The trial was run in a walnut orchard (Juglans regia cv. Serr) located in Graneros, Chile in the year 2008. Trial design was completely randomized with 3 replicates per treatment. Each replicate had identified branches completing 100 female flowers. Remaining fruit were counted after fruit set and at harvest time. […] [table] […] As a consequence PFA was quite high, influencing adversely yields in orchard where no ethylene control was done.

Setting [1] is: Treatment No. 2: 0.5 l/ha, 2 applications (10% and 30% of pistillates flowering).
Where [2] appears, read: Treatment No. 5: 0.7 l/ha + 0.015% Break-Thru, 3 applications (10%, 30% and 50% of pistillates flowering).

Consider `COC(=O)N(OC)c1ccccc1COc1ccn(-c2ccc(Cl)cc2)n1` [Pyraclostrobin, pyraclostrobin], for which, under setting [1], the “Fruit set (%) (Oct. 23, 2008)” value amounted to 54.0%; the “Increase (%) compared to UTC, fruit set” value was “+108%”; the “Increase (%) compared to UTC, remaining fruits at harvest” value is reported as “+106%”; the “Increase (%) compared to UTC, small growing fruits” value is reported as “+104%”. Under setting [1], the “Remaining fruits at harvest (%) (Mar. 03, 2009)” value is 46.0% and the “Small growing fruits (%) (Nov. 10, 2008)” value was 46.3%. Further, under setting [2], the “Increase (%) compared to UTC, fruit set” value is reported as “+165%”; the “Increase (%) compared to UTC, remaining fruits at harvest” value is recorded as “+200%”; the “Increase (%) compared to UTC, small growing fruits” value is listed as “+201%”.

Values taken from US20120178625A1, “METHOD FOR REDUCING PISTILLATE FLOWER ABORTION IN PLANTS” (BASF SE, priority 2009, published 2012).
